Several values for one entry are separate records, joined by “and”; a condition that tells them apart may be missing. Identical values can stand only once. Blank lines part the entries; values can stand above or below the compound they belong to.
Columns and labels:
H1299 cells [1] = test: Annexin V-FITC/PI apoptosis assay (flow cytometry); details: H1299, double IC50, 72 h; for Necrosis (%) (Annexin−/PI+, Q1-UL): control 0.7; for Late Apoptosis (%) (Annexin+/PI+, Q1-UR): control 2.6; for Early Apoptosis (%) (Annexin+/PI−, Q1-LR): control 8.7; for Total Apoptosis (%): control 11.3
Method: (§6) Apoptosis was assessed using Annexin-V/PI staining, following the method described earlier with minor modifications [84]. […] After the treatment, the cells were collected and stained with Annexin-V-FITC and propidium iodide. The stained cells were then analyzed using a BD FACSCanto II flow cytometer (Becton, Dickinson and Company (BD), Franklin Lakes, NJ, USA) and FACSDiva software (Becton, Dickinson and Company (BD), Franklin Lakes, NJ, USA).

recombinant human MMP12 = target: T1, recombinant human MMP12 (Homo sapiens, UniProt P39900); test: MMP12 colorimetric thiopeptide enzyme inhibition assay (Abcam); format: biochemical
T1 construct: purchased Abcam
Method: The enzyme inhibition potential of synthesized p-chlorocinnamic acid derivatives against MMP12 was assessed using the Abcam colorimetric assay.
The inhibitory activity of the newly synthesized compounds against MMP12 was assessed using a previously established enzymatic assay protocol, as described in our earlier study. In brief, we conducted a colorimetric thiopeptide-based inhibition assay for MMP12 using recombinant human MMP12 and the reference inhibitor NNGH as a positive control. The IC50 values were calculated using GraphPad Prism version 9 (GraphPad Software, San Diego, CA, USA).

A549 lung cancer cells = test: MTT cell viability assay, A549; format: cell-based, human
Method: (§1) To evaluate the impact of MMP12 inhibitors on lung cancer cell lines, an MTT assay was performed on A549, H1299, and H661 cells exposed to varying concentrations of inhibitors over 48, 72, and 96 h.
(§2) The lung cancer cell lines referenced as A549, H1299, and H661 were acquired from the American Type Culture Collection (ATCC, Manassas, VA, USA). Fibroblast cells of dermal origin were used as a model for normal human tissue, which were also purchased from ATCC. A549, H1299, and H661 cells were maintained in the RPMI culture medium, while fibroblast cells were maintained in the DMEM high glucose culture medium. Both RPMI and DMEM culture media were supplemented with 100 U/mL penicillin, 0.1 mg/mL streptomycin to prevent bacterial growth, 10% FBS to promote cell growth, and 2 mM L-glutamine as an energy source.
(§3) The 3-(4,5-dimethylthiazol-2-yl)-2,5-diphenyltetrazolium bromide (MTT) assay was employed to evaluate cell proliferation as previously noted. All experiments were performed in triplicate wells and were repeated at least twice independently. The percentage of the relative cell viability of treated cells versus the untreated cells (negative controls) was calculated using the following formula in Equation (1) (cell viability calculation):(1) Cell viability%=optical density of treated cells/optical density of untreated cells×100

H1299 lung cancer cells = test: MTT cell viability assay, H1299; format: cell-based, human
Method: as §1, §2, §3

H661 lung cancer cells = test: MTT cell viability assay, H661; format: cell-based, human
Method: as §1, §2, §3

H1299 cells [2] = test: Wound healing migration assay; format: cell-based, human; details: for Wound closure %: untreated 99; for Wound migration rate (px/h): untreated 16,702
Method: The wound healing migration assay was conducted using H1299 cells, following an established protocol. […] Images were captured at 0 and 48 h, and wound closure was quantified using ImageJ. Digital images were analyzed for wound area using the ImageJ software version 1.53e.

H1299 cells [3] = test: Soft agar colony formation assay (anchorage-independent growth); format: cell-based, human; details: for Colony count / Colony average size (px): H1299 soft agar; for Colony count: untreated 920; for Colony average size (px): untreated 746758
Method: Figures S12–S16 show a selection of images captured on day 15 at different magnifications: 4× and 20×.
The anchorage-independent colony formation assay was conducted using a previously described method with minor modifications. […] After 14 days of incubation, the colonies were imaged using the EVOS XL Core microscopeThermo Fisher Scientific, Waltham, MA, USA. and quantified.

CD44 mRNA in H1299 cells = test: qPCR gene expression, CD44; format: cell-based, human; details: H1299, 0.1 IC50, 72 h
Method: (§4) Quantitative real-time PCR (qPCR) was used to assess the impact of MMP12 inhibition in H1299 lung cancer cells.
(§5) Quantitative real-time PCR (qPCR) was conducted as previously described. Lung cancer cell lines (A549, H1299, H661) were seeded at approximately 4 × 10^5 cells per T-25 flask and incubated for 24 h. […] Total RNA was extracted, reverse-transcribed into cDNA, and qPCR was performed using SYBR Green on an Applied Biosystems platform, Foster City, CA, USA. Gene expression was normalized to GAPDH, and the fold-change was calculated using the 2^−ΔΔCt method. The basal expression of MMP12 in untreated A549, H1299, and H661 cells was assessed using the 2^−ΔCt method. Primer sequences and annealing temperatures (Ta) are listed in Table S2 (Supplementary Materials).

[4] = tested on: NFKBIA mRNA in H1299 cells; test: qPCR gene expression, NFKBIA; format: cell-based, human; details: H1299, 0.1 IC50, 72 h
Method: as §4, §5

[5] = tested on: PSME3 mRNA in H1299 cells; test: qPCR gene expression, PSME3; format: cell-based, human; details: H1299, 0.1 IC50, 72 h
Method: as §4, §5

[6] = tested on: SPARCL1 mRNA in H1299 cells; test: qPCR gene expression, SPARCL1; format: cell-based, human; details: H1299, 0.1 IC50, 72 h
Method: as §4, §5

[7] = tested on: ADAM9 mRNA in H1299 cells; test: qPCR gene expression, ADAM9; format: cell-based, human; details: H1299, 0.1 IC50, 72 h
Method: as §4, §5

[8] = tested on: APOA1 mRNA in H1299 cells; test: qPCR gene expression, APOA1; format: cell-based, human; details: H1299, 0.1 IC50, 72 h
Method: as §4, §5

[9] = tested on: CCL15 mRNA in H1299 cells; test: qPCR gene expression, CCL15; format: cell-based, human; details: H1299, 0.1 IC50, 72 h
Method: as §4, §5

[10] = tested on: MMP12 mRNA in H1299 cells; test: qPCR gene expression, MMP12; format: cell-based, human; details: H1299, 0.1 IC50, 72 h
Method: as §4, §5

[11] = tested on: MMP12 protein in H1299 cells; test: Western blot of MMP12 protein expression; format: cell-based, human; details: for Normalized MMP-12 (to GAPDH), Western blot: untreated H1299 0.9696
Method: Western blotting was conducted to assess the protein expression of MMP12 in lung cancer cell lines (A549, H1299, and H661), following the protocol established earlier. In summary, cells were seeded and incubated for 24 h. […] Total protein lysates were prepared, separated by SDS-PAGE, and transferred to nitrocellulose membranes. These membranes were then probed with primary antibodies against MMP12 and GAPDH. The protein bands were visualized using an HRP substrate and analyzed for relative expression.

H1299 cells [12] = test: Cell cycle analysis (PI staining, flow cytometry); format: cell-based, human; details: H1299, ½ IC50, 48 h
Method: Cell cycle distribution was evaluated in H1299 cells using a modified version of the method described. […] After the treatment period, the cells were fixed with ethanol, stained with a propidium iodide/RNase A solution, and analyzed using a BD FACSCanto II flow cytometer. The data were processed with BD FACSDiva software version 8 (BD Biosciences, San Jose, CA, USA).

H1299 cells [13] = details: human, 72 h
Method: as §6

[14] = highest listed concentration (IC50)
[15] = lowest listed concentration (¼ IC50)
[16] = middle listed concentration (½ IC50)
[17] = relative to untreated, GAPDH normalized

T1 sequence (P39900 106-470): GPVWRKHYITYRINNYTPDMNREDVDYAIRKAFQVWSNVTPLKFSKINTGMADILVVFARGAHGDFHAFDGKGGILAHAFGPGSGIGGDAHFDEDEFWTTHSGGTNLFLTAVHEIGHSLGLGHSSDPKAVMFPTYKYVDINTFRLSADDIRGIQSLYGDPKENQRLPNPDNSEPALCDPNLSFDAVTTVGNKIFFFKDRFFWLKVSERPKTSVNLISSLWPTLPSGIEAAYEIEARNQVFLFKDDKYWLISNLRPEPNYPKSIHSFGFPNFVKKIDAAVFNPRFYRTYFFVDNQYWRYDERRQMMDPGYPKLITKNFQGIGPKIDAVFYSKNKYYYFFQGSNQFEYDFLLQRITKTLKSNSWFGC

SMILES: N.N.[Cl][Pt][Cl] [Cisplatin, reference compound]
Necrosis (%) (Annexin−/PI+, Q1-UL) (H1299 cells [1]): 1.7% | Late Apoptosis (%) (Annexin+/PI+, Q1-UR) (H1299 cells [1]): 11.6% | Early Apoptosis (%) (Annexin+/PI−, Q1-LR) (H1299 cells [1]): 28.6% | Total Apoptosis (%) (H1299 cells [1]): 40.2%

inhibition at 50 µM (recombinant human MMP12): 32.9% | IC50 (A549 lung cancer cells; A549, 72 h): 118 µM | IC50 (A549 lung cancer cells; Homo sapiens, A549, 48 h): 198 µM | IC50 (A549 lung cancer cells; Homo sapiens, A549, 72 h): 119 µM | IC50 (A549 lung cancer cells; Homo sapiens, A549, 96 h): 82 µM | IC50 (H1299 lung cancer cells; H1299, 72 h): 91 µM and 91.7 µM | IC50 (H1299 lung cancer cells; Homo sapiens, NCI-H1299, 48 h, H1299, 48 h): 359 µM | IC50 (H1299 lung cancer cells; Homo sapiens, NCI-H1299, 72 h, H1299, 72 h): 91.7 µM | IC50 (H1299 lung cancer cells; Homo sapiens, NCI-H1299, 96 h, H1299, 96 h): 99.7 µM | IC50 (H661 lung cancer cells; H661, 72 h): 34 µM | IC50 (H661 lung cancer cells; Homo sapiens, NCI-H661, 48 h, H661, 48 h): 60.4 µM | IC50 (H661 lung cancer cells; Homo sapiens, NCI-H661, 72 h, H661, 72 h): 33.9 µM | IC50 (H661 lung cancer cells; Homo sapiens, NCI-H661, 96 h, H661, 96 h): 129 µM
SMILES: O=C(/C=C/c1ccc(Cl)cc1)Nc1ccc(C(=O)c2ccccc2)cc1 [Compound C1]
Wound closure % (H1299 cells [2]; H1299, 48 h, at IC50 concentration): 10% | Wound closure % (H1299 cells [2]; H1299, 48 h, at ¼ IC50): 72% | inhibition of wound closure (H1299 cells [2]; H1299, 48 h, at ½ IC50 (C1 45.9, C7 24.1, C9 21.7, C10 32.7, C15 72.6 µM)): ~50% | Wound closure % (H1299 cells [2]; H1299, 48 h, at ½ IC50): 50% | Wound migration rate (px/h) (H1299 cells [2]; H1299, at IC50 concentration): 1,640.73 px/h | Wound migration rate (px/h) (H1299 cells [2]; H1299, at ¼ IC50): 11,751 px/h | Wound migration rate (px/h) (H1299 cells [2]; H1299, at ½ IC50): 9,225 px/h | formation of cell colonies (number and size), in words (H1299 cells [3]; H1299, IC50, ½ IC50 or ¼ IC50, 72 h, vs untreated control): inhibited the formation of cell colonies | Colony count (H1299 cells [3]; [14]): 292 | Colony average size (px) (H1299 cells [3]; [14]): 51655 px | Colony count (H1299 cells [3]; [15]): 520 | Colony average size (px) (H1299 cells [3]; [15]): 262500 px | Colony count (H1299 cells [3]; [16]): 408 | Colony average size (px) (H1299 cells [3]; [16]): 130041 px | CD44 Fold Change (2^−ΔΔCt) (CD44 mRNA in H1299 cells; [17]): 0.48 | CD44 % Change (CD44 mRNA in H1299 cells; vs untreated control): −52% | NFKBIA Direction [4]: Up | NFKBIA Fold Change (2^−ΔΔCt) [4, 17]: 24.33 | NFKBIA % Change ([4]; vs untreated control): +2333% | PSME3 Fold Change (2^−ΔΔCt) [5, 17]: 0.54 | PSME3 % Change ([5]; vs untreated control): −46% | SPARCL1 Fold Change (2^−ΔΔCt) [6, 17]: 0.49 | SPARCL1 % Change ([6]; vs untreated control): −51% | ADAM9 Direction [7]: Up | ADAM9 Fold Change (2^−ΔΔCt) [7, 17]: 123.60 | ADAM9 % Change ([7]; vs untreated control): +12,260% | APOA1 Fold Change (2^−ΔΔCt) [8, 17]: 0.79 | APOA1 % Change ([8]; vs untreated control): −21% | CCL15 Fold Change (2^−ΔΔCt) [9, 17]: 0.03 | CCL15 % Change ([9]; vs untreated control): −97% | MMP12 Fold Change (2^−ΔΔCt) [10, 17]: 0.78 | MMP12 % Change ([10]; vs untreated control): −22% | MMP12 protein suppression (Western blot), in words ([11]; H1299, 0.1, ¼ and ½ IC50): less effective | Normalized MMP-12 (to GAPDH), Western blot ([11]; H1299, 0.1 IC50, 72 h): 0.6296 | Normalized MMP-12 (to GAPDH), Western blot ([11]; H1299, ¼ IC50, 72 h): 0.3747 | Normalized MMP-12 (to GAPDH), Western blot ([11]; H1299, ½ IC50, 72 h): 0.1966 | cells in G2/M phase (H1299 cells [12]): 9.1% | cells in S phase (H1299 cells [12]): 36.5% | cells in G0/G1 phase (H1299 cells [12]; untreated 62.5%): 47.4% | Viable (%) (Annexin−/PI−, Q1-LL) (H1299 cells [13]): 78.6% | Necrosis (%) (Annexin−/PI+, Q1-UL) (H1299 cells [1]): 1.9% | Late Apoptosis (%) (Annexin+/PI+, Q1-UR) (H1299 cells [1]): 2.9% | Early Apoptosis (%) (Annexin+/PI−, Q1-LR) (H1299 cells [1]): 16.6% | Total Apoptosis (%) (H1299 cells [1]): 19.5%

MMP12 enzyme inhibition (recombinant human MMP12; at 50 µM): 35.0% | IC50 (A549 lung cancer cells; A549, 48 h): > 1000 µM | IC50 (A549 lung cancer cells; A549, 72 h): > 1000 µM | IC50 (A549 lung cancer cells; A549, 96 h): > 1000 µM | IC50 (H1299 lung cancer cells; H1299, 48 h): 827 µM | IC50 (H1299 lung cancer cells; H1299, 72 h): 692 µM | IC50 (H1299 lung cancer cells; H1299, 96 h): 349 µM | IC50 (H661 lung cancer cells; H661, 48 h): 599 µM | IC50 (H661 lung cancer cells; H661, 72 h): 410 µM | IC50 (H661 lung cancer cells; H661, 96 h): 350 µM
SMILES: O=C(/C=C/c1ccc(Cl)cc1)Nc1cccc(C(=O)c2ccccc2)c1 [Compound C2]

From PMC12732581, “Molecular and System-Level Characterization of MMP12 Suppression in Lung Cancer: A Combined Bioinformatics and Molecular Approach” (International Journal of Molecular Sciences, 2025)
